Consider 57 compounds from ChEMBL document CHEMBL1140610, “Matrix metalloproteinases (MMPs): chemical-biological functions and (Q)SARs” (Bioorg Med Chem, 2007).

In one test the target is T1, Interstitial collagenase (Homo sapiens, UniProt P03956).
T1 sequence (P03956 whole entry): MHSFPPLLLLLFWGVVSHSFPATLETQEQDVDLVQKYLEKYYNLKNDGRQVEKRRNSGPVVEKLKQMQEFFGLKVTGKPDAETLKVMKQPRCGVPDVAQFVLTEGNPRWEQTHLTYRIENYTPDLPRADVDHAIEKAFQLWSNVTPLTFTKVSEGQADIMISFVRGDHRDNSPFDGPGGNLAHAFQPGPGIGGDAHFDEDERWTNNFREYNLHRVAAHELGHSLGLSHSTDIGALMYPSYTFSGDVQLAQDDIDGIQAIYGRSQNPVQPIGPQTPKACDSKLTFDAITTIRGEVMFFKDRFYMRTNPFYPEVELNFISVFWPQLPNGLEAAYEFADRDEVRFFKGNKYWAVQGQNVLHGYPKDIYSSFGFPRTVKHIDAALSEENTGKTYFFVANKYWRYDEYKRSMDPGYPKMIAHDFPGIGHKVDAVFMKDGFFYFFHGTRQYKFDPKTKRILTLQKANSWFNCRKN
To be noted: read-out: log(1/IC50) (converted).
For the compound `C[C@@]1(O)CCCN(S(=O)(=O)c2ccc(OCc3ccccc3F)cc2)C1C(=O)NO` (some centres not stated), the IC50 was 182 nM.

With `CNC(=O)[C@@H](Cc1ccc(OC)cc1)NC(=O)C(CC(C)C)CP(=O)(O)Cc1ccccc1-c1ccccc1` (some centres not stated), the IC50 is 11000 nM.

On to `CNC(=O)[C@@H](NC(=O)C(CCC(C)C)CP(=O)(O)Cc1ccc(Cc2ccccc2)cc1)C(C)(C)C` (some centres not stated), for which the IC50 was 3470 nM.

For the compound `C[C@@]1(O)CCCN(S(=O)(=O)c2ccc(OCc3cccc(F)c3)cc2)C1C(=O)NO` (some centres not stated), the IC50 is 339 nM.

Take `C[C@@]1(O)CCCN(S(=O)(=O)c2ccc(OCc3ccc(F)cc3)cc2)C1C(=O)NO` (some centres not stated): the IC50 is 417 nM.

Turning to `CNC(=O)[C@@H](Cc1ccc(OC)cc1)NC(=O)C(CC(C)C)CP(=O)(O)Cc1ccc(CC(C)C)cc1` (some centres not stated), the IC50 is 4470 nM.

In the case of `CC(N)P(=O)(O)CC(CCc1ccccc1)C(=O)NC(Cc1c[nH]c2ccccc12)C(N)=O` (configuration not stated), the IC50 was 79.4 nM.

As for `Cc1c(F)cccc1COc1ccc(S(=O)(=O)N2CCC[C@@](C)(O)C2C(=O)NO)cc1` (some centres not stated), the IC50 was 1290 nM.

As for `CC(N)P(=O)(O)CC(CCCc1ccccc1)C(=O)NC(Cc1c[nH]c2ccccc12)C(N)=O` (configuration not stated), the IC50 is 30.9 nM.

Take `CNC(=O)[C@@H](NC(=O)C(CC1CCCCC1)CP(=O)(O)Cc1ccc(Cc2ccccc2)cc1)C(C)(C)C` (some centres not stated): the IC50 is 1820 nM.

With `C[C@@]1(O)CCCN(S(=O)(=O)c2ccc(OC[n+]3ccncc3)cc2)C1C(=O)NO` (some centres not stated), the IC50 is 1580 nM.

In the case of `CNC(=O)[C@@H](NC(=O)C(CC(C)C)CP(=O)(O)Cc1ccc(Cc2ccccc2)cc1)C(C)(C)C` (some centres not stated), the IC50 is 60.3 nM.

For `CNC(=O)[C@@H](Cc1ccc(OC)cc1)NC(=O)C(CC(C)C)CP(=O)(O)Cc1ccc(S(=O)(=O)c2ccccc2)cc1` (some centres not stated), the IC50 is 1700 nM.

Take `CC(N)P(=O)(O)CC(Cc1ccccc1)C(=O)NC(Cc1c[nH]c2ccccc12)C(N)=O` (configuration not stated): the IC50 is 251 nM.

With `CNC(=O)[C@@H](NC(=O)C(CC1CC1)CP(=O)(O)Cc1ccc(Cc2ccccc2)cc1)C(C)(C)C` (some centres not stated), the IC50 was 200 nM.

Turning to `Cc1ccccc1COc1ccc(S(=O)(=O)N2CCC[C@@](C)(O)C2C(=O)NO)cc1` (some centres not stated), the IC50 is 309 nM.

Take `CNC(=O)[C@@H](Cc1ccc(OC)cc1)NC(=O)C(CC(C)C)CP(=O)(O)Cc1cccc(CCc2ccccc2)c1` (some centres not stated): the IC50 is 7410 nM.

Consider `Cc1ncccc1COc1ccc(S(=O)(=O)N2CCC[C@@](C)(O)C2C(=O)NO)cc1` (some centres not stated), for which the IC50 was 1580 nM.

In the case of `C[C@@]1(O)CCCN(S(=O)(=O)c2ccc(OCc3cncc4ccccc34)cc2)C1C(=O)NO` (some centres not stated), the IC50 is 7760 nM.

Turning to `CNC(=O)[C@@H](NC(=O)C(CCC1CCCCC1)CP(=O)(O)Cc1ccc(Cc2ccccc2)cc1)C(C)(C)C` (some centres not stated), the IC50 was 19100 nM.

As for `CCCC(CP(=O)(O)Cc1ccc(Cc2ccccc2)cc1)C(=O)N[C@H](C(=O)NC)C(C)(C)C` (some centres not stated), the IC50 is 339 nM.

With `CC(C)CC(C(=O)NO)N(Cc1ccccc1)S(=O)(=O)c1c(F)c(F)c(F)c(F)c1F` (configuration not stated), the IC50 is 6.03 nM.

As for `CNC(=O)[C@@H](Cc1ccc(OC)cc1)NC(=O)C(CC(C)C)CP(=O)(O)Cc1ccc(CC2CCCCC2)cc1` (some centres not stated), the IC50 was 1910 nM.

On to `C[C@@]1(O)CCCN(S(=O)(=O)c2ccc(OCc3ccnc4ccccc34)cc2)C1C(=O)NO` (some centres not stated), for which the IC50 was 120 nM.

Consider `C[C@@]1(O)CCCN(S(=O)(=O)c2ccc(OCc3cccc(Cl)c3)cc2)C1C(=O)NO` (some centres not stated), for which the IC50 is 851 nM.

In the case of `CNC(=O)[C@@H](NC(=O)C(CCc1ccccc1)CP(=O)(O)Cc1ccc(Cc2ccccc2)cc1)C(C)(C)C` (some centres not stated), the IC50 is 692 nM.

Take `COc1ccccc1COc1ccc(S(=O)(=O)N2CCC[C@@](C)(O)C2C(=O)NO)cc1` (some centres not stated): the IC50 is 2570 nM.

As to `C[C@@]1(O)CCCN(S(=O)(=O)c2ccc(OCc3ccnc(Cl)c3)cc2)C1C(=O)NO` (some centres not stated), the IC50 was 525 nM.

On to `CNC(=O)[C@@H](Cc1ccc(OC)cc1)NC(=O)C(CC(C)C)CP(=O)(O)Cc1ccc(Oc2ccccc2)cc1` (some centres not stated), for which the IC50 was 2820 nM.

Take `CC(N)P(=O)(O)CC(COCc1ccccc1)C(=O)NC(Cc1c[nH]c2ccccc12)C(N)=O` (configuration not stated): the IC50 is 251 nM.

As for `CC(N)P(=O)(O)CC(CSCc1ccccc1)C(=O)NC(Cc1c[nH]c2ccccc12)C(N)=O` (configuration not stated), the IC50 was 14.1 nM.

For the compound `CNC(=O)[C@@H](Cc1ccc(OC)cc1)NC(=O)C(CC(C)C)CP(=O)(O)Cc1cccc(-c2ccccc2)c1` (some centres not stated), the IC50 is 5130 nM.

As to `CNC(=O)[C@@H](Cc1ccc(OC)cc1)NC(=O)C(CC(C)C)CP(=O)(O)Cc1ccccc1` (some centres not stated), the IC50 was 15100 nM.

Regarding `O=C(CN(Cc1ccc([N+](=O)[O-])cc1)S(=O)(=O)c1c(F)c(F)c(F)c(F)c1F)NO`, the IC50 is 3.02 nM.

Take `CNC(=O)[C@@H](Cc1ccc(OC)cc1)NC(=O)C(CC(C)C)CP(=O)(O)Cc1ccc(Cc2ccccc2)cc1` (some centres not stated): the IC50 is 269 nM.

For `C[C@@]1(O)CCCN(S(=O)(=O)c2ccc(OCc3ccncc3)cc2)C1C(=O)NO` (some centres not stated), the IC50 was 191 nM.

Consider `CNC(=O)[C@@H](Cc1ccc(OC)cc1)NC(=O)C(CC(C)C)CP(=O)(O)Cc1ccc(-c2ccccc2)cc1` (some centres not stated), for which the IC50 was 2190 nM.

With `CNC(=O)[C@@H](NC(=O)C(CCC(F)(F)F)CP(=O)(O)Cc1ccc(Cc2ccccc2)cc1)C(C)(C)C` (some centres not stated), the IC50 was 44.7 nM.

`C[C@@]1(O)CCCN(S(=O)(=O)c2ccc(OCc3ccccc3C#N)cc2)C1C(=O)NO` (some centres not stated): the IC50 was 2690 nM.

As for `CC(C(=O)NO)N(Cc1ccc([N+](=O)[O-])cc1)S(=O)(=O)c1c(F)c(F)c(F)c(F)c1F` (configuration not stated), the IC50 was 3.98 nM.

As for `C[C@@]1(O)CCCN(S(=O)(=O)c2ccc(OCc3ccc(F)cc3Cl)cc2)C1C(=O)NO` (some centres not stated), the IC50 is 309 nM.

With `CNC(=O)[C@@H](NC(=O)C(CC1CCC1)CP(=O)(O)Cc1ccc(Cc2ccccc2)cc1)C(C)(C)C` (some centres not stated), the IC50 is 178 nM.

On to `C[C@@]1(O)CCCN(S(=O)(=O)c2ccc(OCc3ccc(Cl)cc3F)cc2)C1C(=O)NO` (some centres not stated), for which the IC50 was 120 nM.

The target of another test is Matrix metalloproteinase-14 (Homo sapiens, UniProt P50281).
Conditions: not given
Turning to `CCOCCC1(Oc2ccc(Oc3ccc(Br)cc3)cc2)C(=O)NC(=O)NC1=O`, the IC50 is 19.1 nM.

Compound `CCOCCC1(Oc2ccc(Oc3ccc(F)cc3)cc2)C(=O)NC(=O)NC1=O` gave an IC50 of 22.9 nM.

Consider `CCOCCC1(Oc2ccc(Oc3cccc(Cl)c3)cc2)C(=O)NC(=O)NC1=O`, for which the IC50 was 120 nM.

Consider `CCOCCC1(Oc2ccc(Oc3ccc(C(C)(C)C)cc3)cc2)C(=O)NC(=O)NC1=O`, for which the IC50 was 6760 nM.

Compound `CCOCCC1(Oc2ccc(Oc3ccccc3C)cc2)C(=O)NC(=O)NC1=O` came in with an IC50 of 70.8 nM.

In turn, `CCOCCC1(Oc2ccc(Oc3ccc(OC)cc3)cc2)C(=O)NC(=O)NC1=O` had an IC50 of 219 nM.

Compound `CCOCCC1(Oc2ccc(Oc3ccc(C(F)(F)F)cc3)cc2)C(=O)NC(=O)NC1=O` gave an IC50 of 151 nM.

Regarding `CCOCCC1(Oc2ccc(Oc3ccc(C)cc3)cc2)C(=O)NC(=O)NC1=O`, the IC50 is 22.9 nM.

With `CCOCCC1(Oc2ccc(Oc3ccc(C(=O)NC)cc3)cc2)C(=O)NC(=O)NC1=O`, the IC50 is 646 nM.

In the case of `CCOCCC1(Oc2ccc(Oc3ccc(S(C)(=O)=O)cc3)cc2)C(=O)NC(=O)NC1=O`, the IC50 was 8710 nM.

`CCOCCC1(Oc2ccc(Oc3ccccc3F)cc2)C(=O)NC(=O)NC1=O` had an IC50 of 15.8 nM.

`CCOCCC1(Oc2ccc(Oc3cccc(C)c3)cc2)C(=O)NC(=O)NC1=O` showed an IC50 of 50.1 nM.

The compound `CCOCCC1(Oc2ccc(Oc3ccc(C#N)cc3)cc2)C(=O)NC(=O)NC1=O` had an IC50 of 200 nM.

As to `CCOCCC1(Oc2ccc(Oc3ccc(-c4ccccc4)cc3)cc2)C(=O)NC(=O)NC1=O`, the IC50 is 36.3 nM.
